In PubChem BioAssay (NCI):
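At the GI50, growth is halved. The concentration for full growth arrest is given as TGI.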

Experiments:
Experiment in all cases: DTP human tumour cell line panel, 384-well format
[1] = system: T-47D breast
[2] = system: MDA-MB-468 breast
[3] = system: SK-OV-3 ovarian
[4] = system: HOP-92 NSCLC
[5] = system: MDA-MB-231 breast
[6] = system: UO-31 renal
[7] = system: UACC-62 melanoma
[8] = system: SK-MEL-5 melanoma
[9] = system: ACHN renal
[10] = system: PC-3 prostate
[11] = system: SK-MEL-28 melanoma
[12] = system: EKVX NSCLC
[13] = system: NCI-H23 lung
[14] = system: KM12 colon
[15] = system: UACC-257 melanoma
[16] = system: OVCAR-3 ovarian
[17] = system: RPMI-8226 leukemia
[18] = system: COLO 205 colon
[19] = system: HT29 colon
[20] = system: DU-145 prostate
[21] = system: TK-10 renal
[22] = system: RXF 393 renal
[23] = system: SF-268 CNS
[24] = system: MCF7 breast
[25] = system: OVCAR-5 ovarian
[26] = system: MALME-3M melanoma
[27] = system: NCI/ADR-RES ovarian
[28] = system: HL-60(TB) leukemia
[29] = system: 786-0 renal

## CCC[C@H](N[C@H]1CCc2cc(F)cc(F)c2C1)C(=O)Nc1cn(C(C)(C)CNCC(C)(C)C)cn1
[1]
  GI50: 6.21 µM
  TGI: 40 µM
[2]
  GI50: 0.603 µM
  TGI: 6.55 µM
[3]
  GI50: 15.8 µM
  TGI: 33.2 µM
[4]
  GI50: 11.5 µM
  TGI: 26.2 µM
[5]
  GI50: 12.2 µM
  TGI: 32.1 µM
[6]
  GI50: 14.9 µM
  TGI: 32.4 µM
[7]
  GI50: 14.1 µM
  TGI: 27.4 µM
[8]
  GI50: 11.4 µM
  TGI: 23.6 µM
[9]
  GI50: 19.9 µM
  TGI: 69.4 µM
[10]
  GI50: 6.56 µM
  TGI: 21.8 µM
[11]
  GI50: 14.7 µM
  TGI: 29.3 µM
[12]
  GI50: 19.2 µM
  TGI: 71.8 µM
[13]
  GI50: 12.1 µM
  TGI: 29.6 µM
[14]
  GI50: 16.1 µM
  TGI: 35.3 µM
[15]
  GI50: 5.51 µM
  TGI: 21 µM
[16]
  GI50: 11.1 µM
  TGI: 23.5 µM
[17]
  GI50: 3.03 µM
  TGI: 14.1 µM
[18]
  GI50: 21.3 µM
  TGI: 97.7 µM
[19]
  GI50: 9.66 µM
  TGI: 22.7 µM
[20]
  GI50: 20.6 µM
  TGI: 74.6 µM
[21]
  GI50: 21.4 µM
  TGI: 90 µM
[22]
  GI50: 11.1 µM
  TGI: 27.1 µM
[23]
  GI50: 19.8 µM
  TGI: 50.8 µM
[24]
  GI50: 6.74 µM
  TGI: 23.1 µM
[25]
  GI50: 21.4 µM
  TGI: 53.9 µM
[26]
  GI50: 2.64 µM
  TGI: 14.4 µM
[27]
  GI50: 11.1 µM
  TGI: 27.1 µM
[28]
  GI50: 10.7 µM
  TGI: 22.6 µM
[29]
  GI50: 14.5 µM
  TGI: 29.9 µM
